Laboratory results as given in patent US12162850B2, “Formulations” (Betagenon AB, priority 2019, dated 2024).

Experiment: Single dose oral pharmacokinetic studies in rabbits
Type: in vivo
Details: male, New Zealand White, rabbit, plasma; for AUC(0-t): 25 mg/kg, 25 mg/kg b.w. oral single dose

O=C(Nc1nc(=O)n(Cc2ccc(Cl)cc2)s1)c1ccc(Cl)cc1.[Na] [Compound 2, 4-chloro-N-[2-[(4-chlorophenyl)methyl]-3-oxo-1,2,4-thiadiazol-5-yl]benzamide sodium salt]
AUC(0-t) (enteric coated capsule with MgO, rabbit plasma (Example 9)): 1700 ± 248 µg·h/mL
AUC(0-t) (enteric coated capsule with mannitol, rabbit plasma (Example 10)): 1470 ± 78.7 µg·h/mL
Tmax (53 mg/kg, enteric coated capsule with MgO, 53 mg/kg b.w. (equivalent to 50 mg/kg Compound 1) oral single dose, rabbit plasma (Example 11)): 48 ± 24 h
